From the supplement of paper PMC11061612

Experiments:
Experiment in all cases: combination Emax (second highest fraction inhibited in the dose matrix, 72 h); higher = more inhibition; extreme values may be limits of the assay
SK-N-AS (Neuroblastoma) = test system: SK-N-AS (Neuroblastoma)
Procedure, shortened: (§1)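 Cell lines in DMEM/F12 or RPMI with 10% FBS were plated in 1536-well plates, held 24 hours at 37°C, 5% CO2, then given two-drug dose matrices for 72 hours (DMSO typically 0.2%). Viability was read by CellTiter-Glo 2.0 luminescence and scaled as inhibition from 0 (vehicle wells) to 1 (blank wells). Combination Emax is the second-highest inhibition in the matrix; Bliss excess is observed combination effect minus expected EA + EB − EA·EB, EA and EB being single-agent effects.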

[1] = test system: NCI-H650 (Lung Adenocarcinoma)
Procedure, shortened: as §1

[2] = test system: OACM5-1 (Esophageal Adenocarcinoma)
Procedure, shortened: as §1

[3] = test system: HCC1937 (Breast Carcinoma)
Procedure, shortened: as §1

[4] = test system: ALL-SIL (T-Lymphoblastic Leukemia)
Procedure, shortened: as §1

[5] = test system: MOLT-4 (T-Lymphoblastic Leukemia)
Procedure, shortened: as §1

[6] = test system: EJM (Plasma Cell Myeloma)
Procedure, shortened: as §1

[7] = test system: ME-180 (Cervical Carcinoma)
Procedure, shortened: as §1

[8] = test system: KOPN-8 (B-Lymphoblastic Leukemia)
Procedure, shortened: as §1

[9] = test system: MDA-MB-453 (Breast Carcinoma)
Procedure, shortened: as §1

[10] = test system: HCC2998 (Colorectal Carcinoma)
Procedure, shortened: as §1

[11] = test system: SKN (Other Solid Carcinomas)
Procedure, shortened: as §1

[12] = test system: KGN (Other Solid Carcinomas)
Procedure, shortened: as §1

[13] = test system: HCC1500 (Breast Carcinoma)
Procedure, shortened: as §1

[14] = test system: CADO-ES1 (Ewing's Sarcoma)
Procedure, shortened: as §1

[15] = test system: MOG-G-UVW (Low Grade Glioma)
Procedure, shortened: as §1

[16] = test system: NCI-H1838 (Lung Adenocarcinoma)
Procedure, shortened: as §1

[17] = test system: EFO-21 (Ovarian Carcinoma)
Procedure, shortened: as §1

[18] = test system: NCI-H2122 (Lung Adenocarcinoma)
Procedure, shortened: as §1

[19] = test system: NCI-H1092 (Small Cell Lung Carcinoma)
Procedure, shortened: as §1

| SMILES | combination Emax (SK-N-AS (Neuroblastoma)) | combination Emax [1] | combination Emax [2] | combination Emax [3] | combination Emax [4] | combination Emax [5] | combination Emax [6] | combination Emax [7] | combination Emax [8] | combination Emax [9] | combination Emax [10] | combination Emax [11] | combination Emax [12] | combination Emax [13] | combination Emax [14] | combination Emax [15] | combination Emax [16] | combination Emax [17] | combination Emax [18] | combination Emax [19] |
| --- | --- | --- | --- | --- | --- | --- | --- | --- | --- | --- | --- | --- | --- | --- | --- | --- | --- | --- | --- | --- |
| COc1nnc2ccc(N3CCC(c4ccc(OCCN5CCN(C)C(=O)[C@H]5C)cc4)CC3)nn12 [AZD5153] + C=CCn1c(=O)c2cnc(Nc3ccc(N4CCN(C)CC4)cc3)nc2n1-c1cccc(C(C)(C)O)n1 [AZD1775] (first compound max 1 µM, partner max 1 µM) | 0.669 | 0.487 | 0.869 | 0.472 | 0.98 | 1 | 0.867 | 0.68 | 1 | 0.731 | 0.92 | 0.687 | 0.781 | 0.402 | 0.387 | 0.711 | 0.441 | 0.51 | 0.993 | 0.684 |
| Cn1cnc2c(F)c(Nc3ccc(Br)cc3Cl)c(C(=O)NOCCO)cc21 [Selumetinib] + CCN(CCO)CCCOc1ccc2c(Nc3cc(CC(=O)Nc4cccc(F)c4)[nH]n3)ncnc2c1 [AZD2811] (first compound max 10 µM, 7x7, partner max 1 µM) | 0.496 | 0.387 | 0.44 | 0.314 | 0.961 | 0.992 | 0.175 | 0.245 | 1 | 0.162 | 0.792 | 0.255 | 0.514 | 0.157 | 0.276 | 0.642 | 0.322 | 0.212 | 0.962 | 0.215 |
| COc1cccc2c1C(=O)c1c(O)c3c(c(O)c1C2=O)C[C@@](O)(C(=O)CO)C[C@@H]3O[C@H]1C[C@H](N)[C@H](O)[C@H](C)O1 [Doxorubicin] + Cc1cc2ncnn2cc1Nc1ncc2c(n1)n(C1CCOCC1)c(=O)n2C [AZD7648] (first compound max 1 µM, 7x7, partner max 10 µM) | 0.723 | 0.334 | 0.834 | 0.439 | 0.983 | 1 | 0.903 | 0.958 | 0.916 | 0.639 | 0.943 | 0.779 | 0.901 | 0.887 | 0.873 | 0.867 | 0.559 | 0.482 | 0.284 | 0.479 |
| COc1cccc(OCCCN)c1-c1cc(Nc2cnc(C#N)cn2)n[nH]1 [Prexasertib] + O=C(c1cc(Cc2n[nH]c(=O)c3ccccc23)ccc1F)N1CCN(C(=O)C2CC2)CC1 [Olaparib] (first compound max 1 µM, 7x7, partner max 10 µM) | 0.995 | 0.708 | 0.641 | 0.503 | 0.992 | 1 | 0.969 | 0.429 | 0.961 | 0.776 | 0.957 | 0.439 | 0.829 | 0.286 | 0.943 | 0.926 | 0.46 | 0.61 | 1 | 0.67 |
| CC1(C)CCC(CN2CCN(c3ccc(C(=O)NS(=O)(=O)c4ccc(NCC5CCOCC5)c([N+](=O)[O-])c4)c(Oc4cnc5[nH]ccc5c4)c3)CC2)=C(c2ccc(Cl)cc2)C1 [Venetoclax] + Cc1cc2ncnn2cc1Nc1ncc2c(n1)n(C1CCOCC1)c(=O)n2C [AZD7648] (first compound max 1 µM, 7x7, partner max 10 µM) | 0.295 | 0.197 | 0.495 | 0.244 | 0.658 | 0.445 | 0.238 | 0.268 | 0.739 | 0.198 | 0.109 | 0.257 | 0.471 | 0.823 | 0.703 | 0.416 | 0.344 | 0.28 | 0.284 | 0.317 |
| C=CCn1c(=O)c2cnc(Nc3ccc(N4CCN(C)CC4)cc3)nc2n1-c1cccc(C(C)(C)O)n1 [AZD1775] + O=C(c1cc(Cc2n[nH]c(=O)c3ccccc23)ccc1F)N1CCN(C(=O)C2CC2)CC1 [Olaparib] (first compound max 1 µM, partner max 10 µM) | 0.78 | 0.316 | 0.353 | 0.497 | 0.899 | 1 | 0.891 | 0.457 | 0.904 | 0.411 | 0.448 | 0.412 | 0.745 | 0.227 | 0.636 | 0.864 | 0.477 | 0.308 | 0.834 | 0.382 |
| Cc1c2c(nn1C)CSCc1cc(n(C)n1)CSc1cc(c3ccccc3c1)OCCCc1c(C(=O)O)n(C)c3c-2c(Cl)ccc13 [AZD5991] + CN(C)CCCOc1ccc(-c2ccc3ncc4c(c3c2)n(C2CCOCC2)c(=O)n4C)cn1 [AZD0156] (first compound max 1 µM, 7x7, partner max 1 µM) | 0.614 | 0.272 | 0.928 | 0.333 | 0.986 | 0.304 | 0.965 | 0.278 | 0.963 | 0.298 | 0.952 | 0.278 | 0.425 | 0.53 | 0.946 | 0.247 | 0.464 | 0.247 | 0.656 | 0.562 |
| CN(CCO)CC[C@H](CSc1ccccc1)Nc1ccc(S(=O)(=O)NC(=O)c2ccc(N3CCC([C@@H](O)c4ccccc4-c4ccc(Cl)cc4)CC3)cc2)cc1S(=O)(=O)C(F)(F)F [AZD4320] + CN(C)CCCOc1ccc(-c2ccc3ncc4c(c3c2)n(C2CCOCC2)c(=O)n4C)cn1 [AZD0156] (first compound max 1 µM, 7x7, partner max 1 µM) | 0.109 | 0.203 | 0.433 | 0.439 | 1 | 0.976 | 0.162 | 0.246 | 0.898 | 0.175 | 0.554 | 0.127 | 0.425 | 0.998 | 0.611 | 0.135 | 0.225 | 0.179 | 0.24 | 0.862 |
| COc1cccc(OCCCN)c1-c1cc(Nc2cnc(C#N)cn2)n[nH]1 [Prexasertib] + C[C@@H]1COCCN1C2=NC(=NC(=C2)C3(CC3)[S@](=N)(=O)C)C4=C5C=CNC5=NC=C4 [AZD6738] (first compound max 1 µM, 7x7, partner max 10 µM) | 0.976 | 0.647 | 0.621 | 0.537 | 0.993 | 1 | 0.947 | 0.485 | 0.977 | 0.888 | 0.967 | 0.465 | 0.834 | 0.383 | 0.918 | 0.917 | 0.689 | 0.638 | 0.99 | 0.698 |
| C[C@@H]1COCCN1c1cc(C2([S@](C)(=N)=O)CC2)nc(-c2ccnc3[nH]ccc23)n1 [AZD6738] + O=C(c1cc(Cc2n[nH]c(=O)c3ccccc23)ccc1F)N1CCN(C(=O)C2CC2)CC1 [Olaparib] (first compound max 10 µM, 7x7, partner max 10 µM) | 0.687 | 0.193 | 0.518 | 0.517 | 0.95 | 1 | 0.899 | 0.425 | 0.876 | 0.794 | 0.811 | 0.417 | 0.828 | 0.341 | 0.915 | 0.847 | 0.542 | 0.412 | 0.902 | 0.184 |
| CCN(CCO)CCCOc1ccc2c(Nc3cc(CC(=O)Nc4cccc(F)c4)[nH]n3)ncnc2c1 [AZD2811] + C=CCn1c(=O)c2cnc(Nc3ccc(N4CCN(C)CC4)cc3)nc2n1-c1cccc(C(C)(C)O)n1 [AZD1775] (first compound max 1 µM, partner max 1 µM) | 0.728 | 0.301 | 0.339 | 0.471 | 0.966 | 1 | 0.875 | 0.396 | 0.882 | 0.301 | 0.599 | 0.236 | 0.767 | 0.227 | 0.454 | 0.771 | 0.483 | 0.472 | 0.897 | 0.259 |
| COc1nnc2ccc(N3CCC(c4ccc(OCCN5CCN(C)C(=O)[C@H]5C)cc4)CC3)nn12 [AZD5153] + CCN(CCO)CCCOc1ccc2c(Nc3cc(CC(=O)Nc4cccc(F)c4)[nH]n3)ncnc2c1 [AZD2811] (first compound max 1 µM, 7x7, partner max 1 µM) | 0.447 | 0.443 | 0.734 | 0.383 | 1 | 1 | 0.613 | 0.524 | 0.996 | 0.677 | 0.752 | 0.608 | 0.691 | 0.41 | 0.248 | 0.802 | 0.441 | 0.425 | 0.853 | 0.374 |
| CC(=O)Nc1cccc(-n2c(=O)n(C3CC3)c(=O)c3c(Nc4ccc(I)cc4F)n(C)c(=O)c(C)c32)c1 [Trametinib] + Cc1nc(-c2cn3c(n2)-c2ccc(-c4cnn(C(C)(C)C(N)=O)c4)cc2OCC3)n(C(C)C)n1 [Taselisib] (first compound max 1 µM, 7x7, partner max 10 µM) | 0.73 | 0.705 | 0.82 | 0.722 | 0.831 | 0.859 | 0.488 | 0.714 | 0.635 | 0.798 | 0.928 | 0.676 | 0.807 | 0.319 | 0.245 | 0.955 | 0.476 | 0.618 | 1 | 0.161 |
